From US20070027120A1, “Methods of using vitamin D compounds in the treatment of myelodysplastic syndromes” (priority 2002, published 2007)
Read-outs that look alike come from different tables or passages of the source.

What was measured:
[1] = relative to calcitriol; cited from earlier work
[2] = test system: MDS; conditions: cited from earlier work
[3] = test system: MDS; conditions: 75 mg/m^2/day subcutaneously for 7 days out of 28; cited from earlier work
[4] = test system: low risk MDS and refractory anemia unresponsive to erythropoietin; test: Phase 2 trial of high dose pulse administration of calcitriol; type: in vivo, human
Protocol: Patients having low risk MDS and refractory anemia unresponsive to erythropoietin were entered into a Phase 2 trial to evaluate the effect of high dose pulse administration of calcitriol. These patients are red blood cell transfusion dependent because of severe anemia. Patients were administered weekly oral calcitriol at a dose of 45 μg for 20 consecutive weeks. The calcitriol was formulated in a composition containing the following excipients with the amount given in approximate percentage by weight: 65% MIGLYOL 812N®, 30% […] 44/14®, 5% vitamin-E TPGS and about 0.05% each of butylated hydroxytoluene (BHT) and butylated hydroxyanisole (BHA).

[5] = test system: MDS; conditions: cited from earlier work; remark: listed apart in the source
[6] = test system: refractory malignancies; conditions: weekly HDPA; cited from earlier work
[7] = Patient #1, 45 μg oral weekly for 20 weeks
[8] = Patient #3, 45 μg oral weekly for 20 weeks

Molecule: C=C1/C(=C\C=C2/CCC[C@]3(C)[C@@H]([C@H](C)/C=C/[C@@H](O)C4CC4)CC[C@@H]23)C[C@@H](O)C[C@@H]1O [calcipotriol]
- calcemic index [1]: about 0.01

Molecule: EPO: erythropoietin, hematopoietic growth factor
- subjects who respond ([2]; EPO administered with G-CSF): about 40%
- subjects who respond ([2]; EPO alone): about 20%
- rate of responsiveness ([2]; refractory anemia and refractory anemia with ring sideroblasts): 21%
- rate of responsiveness ([2]; refractory anemia with excess blasts): 8%

Molecule: Nc1ncn([C@@H]2O[C@H](CO)[C@@H](O)[C@H]2O)c(=O)n1 [5-azacytidine]
- patients with a complete response [3]: 7%
- patients with at least a partial response [3]: ~60%

Molecule: C=C1/C(=C/C=C2/CCC[C@@]3(C)C2CC[C@@H]3[C@H](C)CCCC(C)(C)O)C[C@@H](O)C[C@@H]1O (stereo in doubt) [calcitriol, 1α,25-dihydroxycholecalciferol]
- protocol defined response [4, 7]: minor response (A minor erythroid responder is a subject with a baseline hemoglobin of less than 11 g/dL who experiences an increase of 1 to 2 g/dL from baseline)
- rise in hemoglobin as compared to baseline [4, 7]: more than one
- decrease in required red blood cell transfusions as compared to baseline ([4]; Patient #2, 45 μg oral weekly for 20 weeks): 50%
- protocol defined response [4, 8]: major response (A major erythroid responder is a subject with a baseline hemoglobin of less than 11 g/dL who experiences an increase of greater than or equal to 2 g/dL from the baseline)
- rise in hemoglobin as compared to baseline [4, 8]: more than two
- dose at which hypercalcemia was induced ([5]; daily administration (Koeffler et al.)): 2 µg/day
- maximum dose administered without hypercalcemia ([5]; subjects with MDS (Mellibovsky et al.)): 0.75 µg/day
- dose-limiting toxicity [6]: no dose-limiting toxicity
- mean peak calcitriol levels [6]: within the therapeutic range
- calcemic index [1]: 1
